Key:
[1] = Release kinetics of the drug by micro-dialysis (QuixSep) into PBS pH 7.4; format: physicochemical; details: 5FU solution in PBS at 200 μg/ml; up to 60 minutes; ambient temperature
Procedure: In particular, as a receiving step a PBS (phosphate buffered saline) at pH=7.4 was analysed. The method used is micro-dialysis by means of a system known as QuixSep® with a Spectra/pore membrane, MWCO=3500 Da.
The system was maintained under constant magnetic stirring, at ambient temperature, taking samples of the receiving step at predetermined times and re-integrating the collected volume.
The samples were analysed and the values obtained were plotted considering the single collections and re-integrations from the preceding step, so as to obtain a dissolution/release profile.
The data relating to the release percentage were calculated on the basis of a drug loading determined by LC-MS/MS analysis.

[2] = bolus of 600 mg of 5FU, cited from earlier work

O=c1[nH]cc(F)c(=O)[nH]1 [Batch 5FU, 5-fluorouracil]
dissolution of the free drug [1]: 70%
plasmatic concentration of 5FU ([2]; after 25 minutes): 10 µg/mL
Cmax ([2]; body surface of 1.7): about 50 μg/ml

Reference: patent US10842756B2 (BIOVIIIX S.R.L., priority 2015, dated 2020)
